US10597388B2, “Pyridazinone herbicides” (FMC CORPORATION, priority 2014, dated 2020)

Columns and labels:
Assay in all cases: Test C greenhouse herbicide test, pre- and postemergence
Type in all cases: in vivo
corn (Zea mays) = system: corn (Zea mays)
Outline: (§1)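 Visual ratings on a 0 to 100 scale (0 = no effect, 100 = complete control) versus untreated controls, scored 13–15 d after treatment. Soil-applied preemergence to seeded loam/sand; foliar postemergence to 1- to 4-leaf plants (2–18 cm) in peat-vermiculite mix; compounds formulated in solvent plus surfactant.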

[1] = system: nutsedge, yellow (yellow nutsedge, Cyperus esculentus)
Outline: as §1

[2] = system: blackgrass (Alopecurus myosuroides)
Outline: as §1

[3] = system: wheat (winter wheat, Triticum aestivum)
Outline: as §1

[4] = system: galium (catchweed bedstraw, Galium aparine)
Outline: as §1

[5] = system: foxtail, giant (giant foxtail, Setaria faberii)
Outline: as §1

soybean (Glycine max) = system: soybean (Glycine max)
Outline: as §1

[6] = system: johnsongrass (Sorghum halepense)
Outline: as §1

[7] = system: barnyardgrass (Echinochloa crus-galli)
Outline: as §1

[8] = system: crabgrass, large (large crabgrass, Digitaria sanguinalis)
Outline: as §1

[9] = system: ryegrass, Italian (Italian ryegrass, Lolium multiflorum)
Outline: as §1

[10] = system: velvetleaf (Abutilon theophrasti)
Outline: as §1

[11] = Postemergence, 31 g ai/ha, 0 to 100 scale (0 no effect, 100 complete control)
[12] = Postemergence, 125 g ai/ha, scale 0 to 100, 0 is no effect, 100 is complete control
[13] = Postemergence, 250 g ai/ha, scale 0 to 100, 0 no effect, 100 complete control, 13 to 15 d
[14] = Preemergence, 31 g ai/ha, scale 0 to 100, 0 is no effect, 100 is complete control
[15] = Preemergence, 62 g ai/ha, scale 0 to 100, 0 is no effect, 100 is complete control
[16] = Preemergence, 125 g ai/ha, scale 0 to 100, 0 is no effect, 100 is complete control
[17] = Preemergence, 250 g ai/ha, scale 0 to 100, 0 no effect, 100 complete control
[18] = postemergence, 62 g ai/ha, scale 0 to 100, 0 no effect, 100 complete control

Cc1cc(C)c2ccccc2c1-c1c(O)c(C)nn(C)c1=O [Compound 21]
Corn plant response rating (corn (Zea mays); [11]): 5
Plant response rating, Corn (corn (Zea mays); [12]): 20
Plant response rating, Corn (corn (Zea mays); [13]): 20
Plant response rating, Corn (corn (Zea mays); [14]): 0
Plant response rating, Corn (corn (Zea mays); [15]): 15
Plant response rating, Corn (corn (Zea mays); [16]): 40
Corn plant response rating (corn (Zea mays); [17]): 65
Corn plant response rating (corn (Zea mays); [18]): 65
Nutsedge, Yellow plant response rating [1, 11]: 85
Plant response rating, Nutsedge, Yellow [1, 12]: 90
Plant response rating, Nutsedge, Yellow [1, 13]: 90
Plant response rating, Nutsedge, Yellow [1, 14]: 75
Plant response rating, Nutsedge, Yellow [1, 15]: 85
Plant response rating, Nutsedge, Yellow [1, 16]: 85
Nutsedge, Yellow plant response rating [1, 17]: 85
Nutsedge, Yellow plant response rating [1, 18]: 90
Blackgrass plant response rating [2, 11]: 80
Plant response rating, Blackgrass [2, 12]: 90
Plant response rating, Blackgrass [2, 13]: 95
Plant response rating, Blackgrass [2, 14]: 90
Plant response rating, Blackgrass [2, 15]: 90
Plant response rating, Blackgrass [2, 16]: 90
Blackgrass plant response rating [2, 17]: 90
Blackgrass plant response rating [2, 18]: 90
Wheat plant response rating [3, 11]: 0
Plant response rating, Wheat [3, 12]: 35
Plant response rating, Wheat [3, 13]: 35
Plant response rating, Wheat [3, 15]: 5
Plant response rating, Wheat [3, 16]: 30
Wheat plant response rating [3, 17]: 40
Wheat plant response rating [3, 18]: 5
Galium plant response rating [4, 11]: 98
Plant response rating, Galium [4, 12]: 100
Plant response rating, Galium [4, 13]: 100
Plant response rating, Galium [4, 14]: 98
Plant response rating, Galium [4, 15]: 98
Plant response rating, Galium [4, 16]: 98
Galium plant response rating [4, 17]: 100
Galium plant response rating [4, 18]: 100
Foxtail, Giant plant response rating [5, 11]: 55
Plant response rating, Foxtail, Giant [5, 12]: 90
Plant response rating, Foxtail, Giant [5, 13]: 95
Plant response rating, Foxtail, Giant [5, 14]: 100
Plant response rating, Foxtail, Giant [5, 15]: 100
Plant response rating, Foxtail, Giant [5, 16]: 100
Foxtail, Giant plant response rating [5, 17]: 100
Foxtail, Giant plant response rating [5, 18]: 80
Soybean plant response rating (soybean (Glycine max); [11]): 0
Plant response rating, Soybean (soybean (Glycine max); [12]): 10
Plant response rating, Soybean (soybean (Glycine max); [13]): 20
Plant response rating, Soybean (soybean (Glycine max); [15]): 0
Plant response rating, Soybean (soybean (Glycine max); [16]): 0
Soybean plant response rating (soybean (Glycine max); [17]): 20
Soybean plant response rating (soybean (Glycine max); [18]): 0
Johnsongrass plant response rating [6, 11]: 10
Plant response rating, Johnsongrass [6, 12]: 20
Plant response rating, Johnsongrass [6, 13]: 35
Plant response rating, Johnsongrass [6, 14]: 10
Plant response rating, Johnsongrass [6, 15]: 10
Plant response rating, Johnsongrass [6, 16]: 35
Johnsongrass plant response rating [6, 17]: 50
Johnsongrass plant response rating [6, 18]: 20
Barnyardgrass plant response rating [7, 11]: 35
Plant response rating, Barnyardgrass [7, 12]: 75
Plant response rating, Barnyardgrass [7, 13]: 90
Plant response rating, Barnyardgrass [7, 14]: 80
Plant response rating, Barnyardgrass [7, 15]: 100
Plant response rating, Barnyardgrass [7, 16]: 100
Barnyardgrass plant response rating [7, 17]: 100
Barnyardgrass plant response rating [7, 18]: 45
Crabgrass, Large plant response rating [8, 11]: 30
Plant response rating, Crabgrass, Large [8, 12]: 40
Plant response rating, Crabgrass, Large [8, 13]: 55
Plant response rating, Crabgrass, Large [8, 14]: 35
Plant response rating, Crabgrass, Large [8, 15]: 85
Plant response rating, Crabgrass, Large [8, 16]: 85
Crabgrass, Large plant response rating [8, 17]: 100
Crabgrass, Large plant response rating [8, 18]: 35
Ryegrass, Italian plant response rating [9, 11]: 90
Plant response rating, Ryegrass, Italian [9, 12]: 95
Plant response rating, Ryegrass, Italian [9, 13]: 95
Plant response rating, Ryegrass, Italian [9, 14]: 90
Plant response rating, Ryegrass, Italian [9, 15]: 90
Plant response rating, Ryegrass, Italian [9, 16]: 90
Ryegrass, Italian plant response rating [9, 17]: 95
Ryegrass, Italian plant response rating [9, 18]: 95
Velvetleaf plant response rating [10, 11]: 75
Plant response rating, Velvetleaf [10, 12]: 85
Plant response rating, Velvetleaf [10, 13]: 90
Plant response rating, Velvetleaf [10, 15]: 90
Plant response rating, Velvetleaf [10, 16]: 98
Velvetleaf plant response rating [10, 17]: 98
Velvetleaf plant response rating [10, 18]: 85
